Experimental data: US20260028390A1, “ALPHA1-ANTITRYPSIN FOR USE IN THE TREATMENT OF DISEASES OR DISORDERS OF THE NERVOUS SYSTEM SUCH AS CHRONIC INFLAMMATORY DEMYELINATING POLYNEUROPATHY” (Ageronix SA, priority 2022, published 2026)

System: HMC3-MHCII^Luc cells
Assay: RNAseq differential gene expression / GSEA in AAT-treated resting and IFNγ-activated microglia
Type: cell-based, human
Method: • A) Human microglial HMC3-MHCII^Luc cells were plated at day 0, presented IFNγ at day 1 until day 2 and measurement of the luciferase activity and cell viability were done at day 4. • B) AATs were applied from day 0 to day 4 on HMC3-MHCII^Luc cells. Activation was measured by the activity of MHCII-driven luciferase and represented as percentage of IFNγ control for all conditions. All conditions were performed in triplicates, error bars represent standard deviation. • C) Bulk RNA extraction was performed on the same HMC3-MHCII^Luc cultures. Quality control (QC) were applied to RNA before sequencing. QC of the sequencing was done prior to mapping on the human genome. Mapped reads were counted, and differential gene expression was measured between the conditions (see Table 1-10). (FIGS. 3A, 3B and 3C)
RNAseq data from plasma-derived and recombinant AATs were pooled, normalized and analyzed through Gene Set Enrichment Analysis (GSEA) (https://www.gsea-msigdb.org/gsea/index.jsp; Subramanian, A., et al. Proc. Natl. Acad. Sci. USA, 102 (43): 15545-15550, 2005.). […] Importantly, both the IFNγ and inflammatory responses were dampened by AAT. However, the downregulation of the inflammatory response genes in (C) was just under significance.
Tables of genes related to antigen presentation (Table 1), cytokine signaling (Table 2), interferon signaling (Table 3) and complement activation (Table 4). Inflammatory top gene (FC>2; p-value<0.05; left column), were defined by differential expression between untreated and IFNγ-treated cells (inflammation; middle column).
HMC3-MHCII^Luc and HMC3-MHCII^Luc; Ubi^AAT (endogenous AAT) cell lines were seeded into 96-well plates at a density of approximately 2500 cells/well. HMC3-MHCII^Luc cell line was plated and was added plasma-derived AAT and recombinant AATs (produced in CHO cells, AAT 1 and AAT 2) 3h later and at ranged concentration (1; 10 or 25 μM). 24h after, still in the presence of exogenous or endogenous AAT, microglial activation was induced with a 24h-long IFNγ presentation (10 ng/ml). IFNγ was then removed and both HMC3-MHCII^Luc and HMC3-MHCII^Luc; Ubi^AAT cells were cultured for 48h in exogenous or endogenous presence of AAT before cell cultures were beeing assessed for cell viability and activation (See FIGS. 3A, 3B, 3C and 4A,4B, 4C).
RNA samples from plasma-derived AAT and recombinant AAT Nr. 2 were checked for quality (2100 Bioanalyzer, Agilent) and libraries prepared with Truseq RNA Library Kit (Illumina, RS-122-2001). Libraries were sequenced (HiSeq 4000, Illumina) controlled for the quality of sequencing (FastQC), mapped on the human genome (STAR v.2.7.0f; UCSC hg38), reads were counted (HTSeq v0.9.1) and the differential expression analysis was performed with the R/Bioconductor package (edgeR 1.30.1.).

[1] = Inflammation + AAT, AD risk gene
[2] = Inflammation + AAT, MCT*/PN risk gene
[3] = Inflammation + AAT, MS risk gene
[4] = Inflammation + AAT, PD risk gene
[5] = Regulated in AAT (resting condition), antigen presentation
[6] = Regulated in AAT (resting condition), cytokine signalling
[7] = Regulated in AAT (resting condition), interferon signaling
[8] = head prints AAT (right block), GBS risk gene
[9] = inflammation + AAT, antigen presentation
[10] = inflammation + AAT, complement activation
[11] = inflammation + AAT, cytokine signalling
[12] = inflammation + AAT, interferon signaling

Substance: alpha1-antitrypsin (AAT) protein
- IGFBP2 expression FC (FC inflammation + AAT, M2 gene): 1.34
- IL1R1 expression FC (FC inflammation + AAT, M2 gene): 1.18
- ITGA11 expression FC (FC inflammation + AAT, M2 gene): 1.54
- KANK2 expression FC (FC inflammation + AAT, M2 gene): 1.25
- KDM2B expression FC (FC inflammation + AAT, M2 gene): 1.17
- KIAA1549L expression FC (FC inflammation + AAT, M2 gene): 1.44
- LDHA expression FC (FC inflammation + AAT, M2 gene): 1.21
- LOXL2 expression FC (FC inflammation + AAT, M2 gene): 1.25
- MBOAT7 expression FC (FC inflammation + AAT, M2 gene): 1.37
- METRN expression FC (FC inflammation + AAT, M2 gene): 1.64
- MIF expression FC (FC inflammation + AAT, M2 gene): 1.72
- MMP1 expression FC (FC inflammation + AAT, M2 gene): 2.39
- MXRA8 expression FC (FC inflammation + AAT, M2 gene): 1.49
- OLFML2B expression FC (FC inflammation + AAT, M2 gene): 1.44
- PAPPA expression FC (FC inflammation + AAT, M2 gene): 1.31
- PLEC expression FC (FC inflammation + AAT, M2 gene): 1.54
- PLLP expression FC (FC inflammation + AAT, M2 gene): 1.46
- PREX1 expression FC (FC inflammation + AAT, M2 gene): 1.28
- PRSS23 expression FC (FC inflammation + AAT, M2 gene): 1.16
- PTPRS expression FC (FC inflammation + AAT, M2 gene): 1.23
- RASAL1 expression FC (FC inflammation + AAT, M2 gene): 1.45
- SEMA3B expression FC (FC inflammation + AAT, M2 gene): 1.39
- SERPINH1 expression FC (FC inflammation + AAT, M2 gene): 1.20
- SH3PXD2B expression FC (FC inflammation + AAT, M2 gene): 1.19
- SLC16A3 expression FC (FC inflammation + AAT, M2 gene): 1.65
- STC2 expression FC (FC inflammation + AAT, M2 gene): 1.32
- TBCD expression FC (FC inflammation + AAT, M2 gene): 1.26
- TCEAL2 expression FC (FC inflammation + AAT, M2 gene): 1.30
- TGFB1I1 expression FC (FC inflammation + AAT, M2 gene): 1.26
- TGFBI expression FC (FC inflammation + AAT, M2 gene): 1.18
- THBS1 expression FC (FC inflammation + AAT, M2 gene): 1.34
- TNFRSF1B expression FC (FC inflammation + AAT, M2 gene): 1.23
- ZIC2 expression FC (FC inflammation + AAT, M2 gene): 2.77
- ZNF319 expression FC (FC inflammation + AAT, M2 gene): 1.25
- ABCA7 expression FC [1]: 1.36
- APOE expression FC [1]: 1.55
- BIN1 expression FC [1]: 1.43
- PICALM expression FC [1]: −1.29
- PSEN2 expression FC [1]: 1.28
- TREM2 expression FC [1]: 1.47
- CCT5 expression FC [2]: −1.13
- DNAJB2* expression FC [2]: 1.20
- DST expression FC [2]: 1.30
- GARS* expression FC [2]: −1.24
- GDAP1* expression FC [2]: −1.24
- HSPB1* expression FC [2]: 1.56
- IGHMBP2* expression FC [2]: 1.21
- INF2 expression FC [2]: 1.35
- KARS* expression FC [2]: −1.13
- LMNA* expression FC [2]: 1.39
- MED25* expression FC [2]: 1.38
- NDRG1* expression FC [2]: 1.30
- SCN9A expression FC [2]: −1.66
- SEPT9 expression FC [2]: 1.29
- TFG* expression FC [2]: −1.19
- TUBB3 expression FC [2]: 1.44
- TRPV4* expression FC (Inflammation + AAT, MCT*/PN risk gene, first TRPV4* line): 1.72
- TRPV4* expression FC (Inflammation + AAT, MCT*/PN risk gene, second TRPV4* line): 1.40
- AGAP2 expression FC [3]: 1.45
- CYP24A1 expression FC [3]: 1.34
- DKKL1 expression FC [3]: 2.12
- HLA-A expression FC [3]: 1.57
- HLA-DRB1 expression FC [3]: 1.51
- MPHOSPH9 expression FC [3]: −1.19
- NFKBIZ expression FC [3]: −1.37
- SLC30A7 expression FC [3]: −1.56
- ZMIZ1 expression FC [3]: 1.47
- ATP13A2 expression FC [4]: 1.49
- DNAJC6 expression FC [4]: −1.12
- GBA expression FC [4]: 1.15
- LRP10 expression FC [4]: 1.23
- PINK1 expression FC [4]: 1.20
- PLA2G6 expression FC [4]: 1.37
- SYNJ1 expression FC [4]: −1.23
- UCHL1 expression FC [4]: −1.10
- NFATC1 expression FC [5]: 1.44
- TRAF6 expression FC [5]: −1.26
- PLAU expression FC (Regulated in AAT (resting condition), complement activation): −1.27
- BIRC2 expression FC [6]: −1.53
- CEBPG expression FC [6]: −1.31
- MYD88 expression FC [6]: −1.35
- RASGRF2 expression FC [6]: −1.45
- RIPK2 expression FC [6]: −1.30
- SPTBN1 expression FC [6]: −1.21
- STAT1 expression FC [6]: −1.47
- TM7SF3 expression FC [6]: −1.18
- TNFSF9 expression FC [6]: 1.26
- TRAF6 expression FC [6]: −1.26
- IRF2 expression FC [7]: −1.17
- STAT1 expression FC [7]: −1.47
- FOS expression FC AAT [8]: −1.54
- GUK1 expression FC AAT [8]: 1.31
- LY96 expression FC AAT [8]: −2.31
- MARCKS expression FC AAT [8]: −1.84
- NFIL3 expression FC AAT [8]: −1.22
- ZNF12 expression FC AAT [8]: −1.23
- genes related to the unfolded protein response (UPR) pathway and cell-survival (GSEA) (human microglial cells, AAT treatment): upregulation
- CALR expression FC [9]: 1.35
- CTSA expression FC [9]: 1.17
- CTSD expression FC [9]: 1.47
- HLA-DOB expression FC [9]: −4.49
- HLA-DPB1 expression FC [9]: 1.31
- HLA-DRA expression FC [9]: −2.22
- IL1B expression FC [9]: −2.07
- MRC2 expression FC [9]: 1.47
- NFATC2 expression FC [9]: 1.63
- PSMB9 expression FC [9]: −1.23
- PYCARD expression FC [9]: 2.20
- SOCS3 expression FC [9]: 1.20
- TAPBP expression FC [9]: 1.23
- C3AR1 expression FC [10]: −1.50
- ITGAX expression FC [10]: 1.41
- PLAUR expression FC [10]: 1.32
- SERPINB2 expression FC [10]: −4.63
- ANXA1 expression FC [11]: −1.33
- ATF3 expression FC [11]: −1.26
- CX3CL1 expression FC [11]: 1.61
- CXCL1 expression FC [11]: −2.09
- CXCL5 expression FC [11]: −2.15
- DUSP6 expression FC [11]: −1.26
- FGF2 expression FC [11]: −1.57
- FSCN1 expression FC [11]: 1.48
- HBEGF expression FC [11]: −1.30
- IL1B expression FC [11]: −2.07
- IL1R1 expression FC [11]: 1.18
- IL18 expression FC [11]: −1.75
- IL27RA expression FC [11]: 1.36
- IL411 expression FC [11]: 1.95
- JAK3 expression FC [11]: 1.43
- MAP2K2 expression FC [11]: 1.51
- MAP2K3 expression FC [11]: 1.37
- MAPK11 expression FC [11]: 1.44
- MAPK12 expression FC [11]: 1.33
- MAPK13 expression FC [11]: 1.23
- NFKBIZ expression FC [11]: −1.37
- PSMB9 expression FC [11]: −1.23
- RASAL1 expression FC [11]: 1.52
- SOCS3 expression FC [11]: 1.20
- STAT5A expression FC [11]: 1.45
- TNFRSF9 expression FC [11]: −2.35
- TRAF2 expression FC [11]: 1.42
- CD44 expression FC [12]: 1.14
- FLNB expression FC [12]: −1.20
- HLA-DPB1 expression FC [12]: 1.31
- HLA-DRA expression FC [12]: −2.22
- IFIT1 expression FC [12]: −1.78
- IFNAR1 expression FC [12]: −1.63
- IRF3 expression FC [12]: 1.56
- MX1 expression FC [12]: −2.00
- MX2 expression FC [12]: −2.14
- SOCS3 expression FC [12]: 1.20
- USP18 expression FC [12]: −1.76
- inflammatory top genes found affected by AAT treatment (top genes FC>2, p-value<0.05, significantly and oppositely regulated): ~35%
